Assay results: US11883430B2, “CD38-NAD+ regulated metabolic axis in anti-tumor immunotherapy” (MUSC FOUNDATION FOR RESEARCH DEVELOPMENT, priority 2016, dated 2024)

Columns and labels:
NAD+ = assay: Intracellular NAD+ level; assay type: cell-based, mouse; conditions: Th1/17 differentiated with 2DG 1 mM, DON 3 μM or FK866 10 nM (FIGS. 11K, 11L)
Description: NAD^+, Sirt1 activity and Foxo1 activity assay: Intracellular NAD^+ level in T cells were measured spectrophotometrically following the manufacturer's protocol (Cayman chemical, Ann Arbor, MI). Using equal amounts of nuclear protein extracted by NE-PER Nuclear and Cytoplasmic Extraction Reagents (Thermo Fisher Scientific, Waltham, MA), Sirt1 activity (Universal Sirt1 Activity Assay Kit, Abcam, Cambridge, MA) and Foxo1 activity (FKHR transcription Factor Assay Kit, Active Motif, Carlsbad, CA) were determined as per manufacturer's protocol.

Th1 cells [1] = assay: Intracellular cytokine (IFNγ, IL17) flow cytometry after PMA and ionomycin; assay type: cell-based, mouse; conditions: Th1 subsets (FIGS. 12A and 12B)
Description: FIGS. 12A-12D: Loss of Sirt1 expression and NAD+ levels on Th1/17 cell phenotype and function (see FIG. 5). (A) Purified CD4^+ T cells from C57BL/6 were used to differentiate to Th1/17 cells either alone or in the presence of Ex527, a pharmacological inhibitor of Sirt1. Cells were then restimulated with PMA and ionomycin for 4 hr in presence of golgi block to stain for intracellular accumulation of cytokines IFNγ and IL17. (B) Th1 cells were cultured either in presence or absence of NAD+ inhibitor FK866 (10 nM) and intracellular staining was performed for IFNγ and IL17. Data was acquired using FACS and analysis was carried out using FlowJo software. (C-D) Purified splenic CD4^+ T cells from either C57BL/6 WT or Sirt1fl/flCD4Cre (Sirt1KO) mouse were used to ex vivo program for Th1/17 cells. RNA was prepared and quantitative PCR analysis was performed for the expression of various glycolysis (C) and glutaminolysis (D) associated genes in either WT or Sirt1KO Th1/17 cells. Data in section A-D are representative of three independent experiments.
T cell differentiation: Naïve CD4^+ T cells were purified from the total splenocytes of 6-9 weeks old WT (C57BL/6) and KO (Foxo1^fl/flLck^cre, Sirt1^fl/flCD4^cre, CD38KO) mice using CD4^+ T cell isolation kit (Miltenyi Biotec) according to manufacturer's protocol. […]

Th1/17 cells [2] = assay: as above; assay type: cell-based, mouse; conditions: WT T cells programmed in presence of Ex527; sentence says both Th17 and Th1/17 cells (FIG. 12A)
Excerpt: T cell differentiation: Naïve CD4^+ T cells were purified from the total splenocytes of 6-9 weeks old WT (C57BL/6) and KO (Foxo1^fl/flLck^cre, Sirt1^fl/flCD4^cre, CD38KO) mice using CD4^+ T cell isolation kit (Miltenyi Biotec) according to manufacturer's protocol. Total splenocytes from 6-9 weeks old TCR transgenic mouse TRP-1 (bears class-II restricted CD4^+ T cells) or Pmel (bears class-I restricted CD8^+ T cells) or TCR-I (bears class-I restricted CD8^+ T cells) were also used. Within experiments mice were age and sex matched. Purified naïve CD4^+ T cells or total splenocytes were differentiated to Th1 or Tc1 (10 ng/ml IL12, 50 U/ml IL2 and 10 μg/ml anti-IL4), Th17 or Tc17 (3 ng/ml TGFβ, 25 ng/ml IL6, 10 μg/ml anti-IL4 and 10 μg/ml anti-IFNγ), Th1/17 or Tc1/17 (20 ng/ml IL1β, 25 ng/ml IL6, 10 ng/ml IL12, 20 ng/ml IL23, 400 pg/ml TGFβ, 10 μg/ml anti-IL4, 5 μg/ml anti-IFNγ), iTreg (5 ng/ml TGFβ, 100 IU/ml IL2, 10 μg/ml anti-IL4 and 10 μg/ml anti-IFNγ or Th0 (50 IU/ml IL2) in presence of plate bound anti-CD3 (5 μg/ml) and anti-CD28 (5 μg/ml). For TRP-1, gp100 or Sv40 specific generation of different Th or Tc subsets, total splenocytes from either TRP-1, Pmel or TCR-I TCR transgenic mice were stimulated with 1 μg/ml respective peptides in presence of above-mentioned polarizing conditions. T cells were differentiated for three days in IMDM media supplemented with 10% FCS, 4 mM L-glutamine, 100 U/ml penicillin, 100 μg/ml streptomycin, 55 μM beta-mercaptoethanol under 7% CO2, atmospheric oxygen at 37° C. in a humidified incubator. For evaluation of intracellular cytokines by flow cytometry, T cells were re-stimulated with PMA (500 ng/ml) and Ionomycin (500 ng/ml) for 4 hr in presence of Glogi inhibitors. […]
Flow cytometry: Staining for cell surface markers was performed by incubating cells with antibody at 1:200 dilutions in FACS buffer (0.1% BSA in PBS) for 30 min at 4° C. […] Samples were acquired on LSRFortessa and analysed with FlowJo software (Tree Star, OR).

Th1/17 cells [3] = assay: qPCR gene expression in Th1/17 cells; assay type: cell-based, mouse; conditions: Th1/17 differentiated with FK866 10 nM or Ex527 (FIGS. 4D, 5D)
Description: Real-time quantitative-PCR: Total RNA was extracted from pellets of the indicated T cell subsets (2×10^6 cells) using Trizol reagent (Life technologies, Grand Island, NY). cDNA was generated from 1 μg total RNA using iScript cDNA Synthesis Kit (BioRad, Hercules, CA). SYBR Green incorporation quantitative real-time PCR was performed using a SYBR Green mix (Biorad, Hercules, CA) in the CFX96 Detection System (BioRad, Hercules, CA). Expression of different genes was quantified relative to Actb.

[4] = test system: B16-F10-HLA-A2+ murine melanoma; assay: Adoptive T cell transfer, s.c. B16-F10-HLA-A2+ melanoma, tumor growth; assay type: in vivo, mouse; conditions: Th1/17 differentiated ex vivo with FK866 or Ex527 vs untreated/vehicle (FIGS. 4E, 5F)
Th17 cells = assay: Seahorse oxygen consumption rate with etomoxir; assay type: cell-based, mouse; conditions: etomoxir 200 μM (FIG. 3I)
Excerpt: (§1) FIGS. 3A-3P: Hybrid Th1/17 cells are metabolically distinct from Th1 and Th17 cells and depend upon glutaminolysis. The ex vivo programmed Th1, Th17 and Th1/17 cells were used to determine: (A) Glucose uptake using 2NBDG. Adjacent bar diagram represents the cumulative data of mean fluorescence intensity (MFI) from three independent experiments. (B) ECAR time course in response to glucose, oligomycin and 2DG (left panel). […] (C) Intracellular expression of GAPDH by FACS. Adjacent bar represents cumulative data from 3 experiments. (D) Glycolysis associated genes using qPCR. Genes including Glut1, HKI, HKII, Pfkb1, Pkm2, and LdhA are lower in Th1/Th17 while Pfkb3 and Pgam 1 are higher. (E-G) Oxygen consumption rate (OCR) under basal condition and in response to indicated mitochondrial inhibitors. Graphs representing time course (E), basal OCR (F), and OCR/ECAR ratio (G). (H) Expression of CTP1a using qPCR. […] (M) Uptake of radiolabelled glutamine that was measured in count per minute (CPM). […] (P) TRP-1 Th1/17 cells differentiated either in presence of vehicle control (DMSO) or DON (3 μM) were adoptively transferred (0.5×10^6) in 9 days s.c. established B16-F10 melanoma tumor bearing mice and tumor growth was measured. […]
(§2) Oxygen consumption rate (OCR) and Extracellular acidification rate (ECAR) was determined using Seahorse Xfe96 analyser (Agilent Technologies, Santa Clara, CA). […] OCR, a measure of OXPHOS, was analysed under basal condition or in response to 200 μM Etomoxir (Sigma-Aldrich, St. Louis, MO) followed by 1.0 μM oligomycin (Sigma-Aldrich, St. Louis, MO), 1.0 μM fluoro-carbonyl cyanide phenylhydrazone (FCCP) (Sigma-Aldrich, St. Louis, MO) and 2 μM rotenone (Sigma-Aldrich, St. Louis, MO) plus 100 nM antimycin A (Sigma-Aldrich, St. Louis, MO). ECAR, a measure of glycolysis was measured under basal conditions and in response to glucose (5.5 mM), Oligomycin (1.0 μM), 2-deoxyglucose (2-DG) (100 mM) (Sigma-Aldrich, St. Louis, MO).

Th1/17 cells [5] = assay: Seahorse oxygen consumption rate with etomoxir; assay type: cell-based, mouse; conditions: etomoxir 200 μM (FIG. 3K)
Excerpt: as §1, §2

Th1 cells [6] = assay: Seahorse oxygen consumption rate with etomoxir; assay type: cell-based, mouse; conditions: etomoxir 200 μM (FIG. 3J)
Excerpt: as §1, §2

O=CC[C@@H](O)[C@H](O)[C@H](O)CO [2DG, 2-Deoxy-D-glucose]
NAD+ levels in Th1/17 cells (NAD+): increased the NAD^+ level in Th1/17 cells

NC(=O)C1CCCc2c1[nH]c1ccc(Cl)cc21 (centres unmarked) [Ex527]
IFNγ secreting fraction (Th1 cells [1]): No significant difference
frequency of IL17+ population (Th1/17 cells [2]): decreased frequency of IL17^+ population
expression of stemness-associated genes (Th1/17 cells [3]): markedly reduced
tumor control by inhibitor-treated Th1/17 cells upon adoptive transfer [4]: reduced ability to control tumor growth as compared to the vehicle treated cells

CCOC(=O)[C@@]1(CCCCCCOc2ccc(Cl)cc2)CO1 [etomoxir]
OCR and SRC values (Th17 cells): significantly depleted OCR and SRC values
OXPHOS (Th1/17 cells [5]): mostly unaffected
OXPHOS (Th1 cells [6]): mostly unaffected
